Laboratory results published in ChEMBL document CHEMBL1201862, “PubChem BioAssay data set” (2004).
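Where inhibition never reached the appropriate level, the endpoint shown equals the highest concentration tested. Otherwise, values were interpolated linearly from a five-concentration, 48-hour dose response in 96-well plates. Abbreviation: GI50, concentration required for 50% inhibition of growth.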 Activity calls are given as the source filed them. Cut-off read from the data, not from the text of the source: active = GI50 up to about 1.1 µM and inactive = higher.

How the values were obtained:
Experiment in all cases: NCI tumour cell line growth inhibition, 48 h
LOX IMVI = tested on: LOX IMVI
MDA-N = tested on: MDA-N
SK-MEL-5 = tested on: SK-MEL-5
SR = tested on: SR
OVCAR-5 = tested on: OVCAR-5
HOP-92 = tested on: HOP-92
NCI-H226 = tested on: NCI-H226
SNB-75 = tested on: SNB-75
SK-OV-3 = tested on: SK-OV-3
CCRF-CEM = tested on: CCRF-CEM
K562 = tested on: K562
OVCAR-8 = tested on: OVCAR-8
UACC-62 = tested on: UACC-62
PC-3 = tested on: PC-3
COLO 205 = tested on: COLO 205
U-251 = tested on: U-251
Malme-3M = tested on: Malme-3M
A498 = tested on: A498
T47D = tested on: T47D
SW-620 = tested on: SW-620

Compound	GI50 (LOX IMVI)	GI50 (MDA-N)	GI50 (SK-MEL-5)	GI50 (SR)	GI50 (OVCAR-5)	GI50 (HOP-92)	GI50 (NCI-H226)	GI50 (SNB-75)	GI50 (SK-OV-3)	GI50 (CCRF-CEM)	GI50 (K562)	GI50 (OVCAR-8)	GI50 (UACC-62)	GI50 (PC-3)	GI50 (COLO 205)	GI50 (U-251)	GI50 (Malme-3M)	GI50 (A498)	GI50 (T47D)	GI50 (SW-620)
O=C(O)CCC(=O)C(=O)O [ALPHA-KETOGLUTARIC ACID]	> 100 µM (inactive)	> 100 µM (inactive)	> 100 µM (inactive)	> 100 µM (inactive)	> 100 µM (inactive)	> 100 µM (inactive)	> 100 µM (inactive)	> 100 µM (inactive)	> 100 µM (inactive)	> 100 µM (inactive)	> 100 µM (inactive)	> 100 µM (inactive)	> 100 µM (inactive)	> 100 µM (inactive)	> 100 µM (inactive)	> 100 µM (inactive)	> 100 µM (inactive)	> 100 µM (inactive)	> 100 µM (inactive)	> 100 µM (inactive)
N#CC1=C(C#N)/C(=C(\C#N)C(C#N)C#N)N=C1N	19.1 µM (inactive)	15.4 µM (inactive)	17.3 µM (inactive)	25.2 µM (inactive)	33.5 µM (inactive)	28.2 µM (inactive)	30 µM (inactive)	41.8 µM (inactive)	57.9 µM (inactive)	8.07 µM (inactive)	31.5 µM (inactive)	52 µM (inactive)	15.1 µM (inactive)	28.7 µM (inactive)	26.9 µM (inactive)	35.6 µM (inactive)	17.1 µM (inactive)	25.9 µM (inactive)	> 100 µM (inactive)	28.5 µM (inactive)
CCCN1CN(c2ccccc2)C2(CCN(CCCC(=O)c3ccc(F)cc3)CC2)C1=O	4.41 µM (inactive)	9.38 µM (inactive)	1.44 µM (inactive)	16.6 µM (inactive)	5.06 µM (inactive)	3.41 µM (inactive)	6.47 µM (inactive)	15 µM (inactive)	19.1 µM (inactive)	0.991 µM (active)	16.3 µM (inactive)	16.7 µM (inactive)	16.3 µM (inactive)	10.2 µM (inactive)	0.169 µM (active)	14.7 µM (inactive)	14.9 µM (inactive)	0.933 µM (active)	4.61 µM (inactive)	5.15 µM (inactive)
